The results in this text go back to ChEMBL document CHEMBL1201862, “PubChem BioAssay data set” (2004).

The source made the active and inactive calls.

The target of assay [1] is FAD-linked sulfhydryl oxidase ALR (Homo sapiens, UniProt P55789). The assay can be described thus: ALR-catalysed DTT oxidation blockers – biochemical, H2O2 detection, luminescence, cherry-pick, dose response (AID 493248).
Assay [2] has as its target T1, 14-3-3 protein gamma (Homo sapiens, UniProt P61981).
T1 sequence (P61981 whole entry): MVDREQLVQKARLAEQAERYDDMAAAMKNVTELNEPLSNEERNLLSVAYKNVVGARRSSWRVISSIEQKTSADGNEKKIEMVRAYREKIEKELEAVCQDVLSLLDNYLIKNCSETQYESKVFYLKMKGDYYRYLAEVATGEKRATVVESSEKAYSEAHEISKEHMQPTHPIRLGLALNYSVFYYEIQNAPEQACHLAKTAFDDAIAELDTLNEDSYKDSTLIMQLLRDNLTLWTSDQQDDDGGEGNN
Kind of assay: modulators of 14-3-3 gamma client binding – dose response (AID 711). In kind it is functional.

Assay [3] addresses T2, Protein skinhead-1 (Caenorhabditis elegans, UniProt P34707).
T2 sequence (P34707 whole entry): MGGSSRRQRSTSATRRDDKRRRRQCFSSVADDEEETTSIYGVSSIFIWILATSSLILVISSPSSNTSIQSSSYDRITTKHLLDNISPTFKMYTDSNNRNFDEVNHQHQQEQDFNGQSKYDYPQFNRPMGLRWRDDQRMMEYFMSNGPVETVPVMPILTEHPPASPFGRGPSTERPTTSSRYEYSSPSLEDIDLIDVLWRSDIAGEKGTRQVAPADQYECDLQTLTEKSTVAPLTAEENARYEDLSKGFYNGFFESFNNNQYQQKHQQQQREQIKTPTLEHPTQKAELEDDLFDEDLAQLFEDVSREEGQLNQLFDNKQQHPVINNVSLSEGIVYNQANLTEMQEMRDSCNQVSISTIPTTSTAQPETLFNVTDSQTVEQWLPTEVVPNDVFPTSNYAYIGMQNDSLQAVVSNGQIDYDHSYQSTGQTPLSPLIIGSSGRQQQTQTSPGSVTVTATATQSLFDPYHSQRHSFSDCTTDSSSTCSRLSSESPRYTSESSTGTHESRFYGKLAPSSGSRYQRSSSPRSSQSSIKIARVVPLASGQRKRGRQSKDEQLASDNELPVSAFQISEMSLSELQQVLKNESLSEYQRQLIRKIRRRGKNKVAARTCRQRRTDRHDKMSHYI
In kind it is functional.

Assay [4] deals with Glutathione-S-transferase (Schistosoma japonicum, UniProt Q26513). The assay can be described thus: GST-antibody interaction or FRET quenching – biochemical, TR-FRET, artefact control for Vif-APOBEC3G degradation inhibitor project, dose response (AID 1117362). In kind it is functional. (TR-FRET usually uses a lanthanide donor and a delayed reading to cut background.)
Assay [5] is described as follows: HCT116 cell viability decrease, GSK3B pretreatment – CellTiter-Glo, IC50, dose response (AID 1117339). In kind it is functional. Particulars: HCT-116. A general note: Cellular ATP, detected with luciferase, serves as a proxy for viable cell number.
The nature of assay [6]: cytotoxicity toward HT-29 cells – cell-based, CellTiter-Glo luminescence, IC50, dose response (AID 1117330). In kind it is functional.
A short description of assay [7]: Reduced DLD-1 viability, concentration-response, CellTiter-Glo luminescence (AID 1117352). The format is functional.
Assay [8] is described as follows: CellTiter-Glo luminescence survival assay, SW480 colon tumor line, concentration-response curve, half-maximal inhibitory concentration (AID 1117338). The format is functional.
The nature of assay [9]: RKO cell viability reduction, dose response, CellTiter-Glo luminescence (AID 1117322). The format is functional.
The nature of assay [10]: cytotoxicity toward HCT116 cells – cell-based, CellTiter-Glo luminescence, IC50, dose response (AID 1117332). In kind it is functional. Particulars: HCT-116.
Assay [11] can be described thus: cytotoxicity toward Colo320 cells – cell-based, CellTiter-Glo luminescence, IC50, dose response (AID 1117334). In kind it is functional. As to conditions: COLO 320.
Assay [12] is described as follows: SNU-C1 cell viability reduction, dose response, CellTiter-Glo luminescence (AID 1117323). The format is functional, cell-based.
Assay [13] is described as follows: viability loss in HepG2 hepatoma cells – cell-based, ATP luminescence, dry powder, set 2, cytotoxicity control, dose response (AID 743129). The format is functional.
Assay [14] has as its system Cryptococcus neoformans. Kind of assay: PubChem AID 686997. In kind it is functional, organism-based.
Assay [15] in a line: TB: CFU replicating Measured in Microorganism System Using Imaging - 7108-05_Inhibitor_Dose_DryPowder_Activity_Set2. In kind it is functional.
Assay [16] concerns the target T3, Sentrin-specific protease 1 (Homo sapiens, UniProt Q9P0U3). Kind of assay: SENP1 catalytic domain blockers, concentration series – biochemical, kinetic FRET, dose response (AID 651697). The format is functional. As to conditions: read-out: IC50_Mean.
The target of assay [17] is T4, Rac GTPase-activating protein 1 (Homo sapiens, UniProt Q9H0H5).
T4 sequence (Q9H0H5 whole entry): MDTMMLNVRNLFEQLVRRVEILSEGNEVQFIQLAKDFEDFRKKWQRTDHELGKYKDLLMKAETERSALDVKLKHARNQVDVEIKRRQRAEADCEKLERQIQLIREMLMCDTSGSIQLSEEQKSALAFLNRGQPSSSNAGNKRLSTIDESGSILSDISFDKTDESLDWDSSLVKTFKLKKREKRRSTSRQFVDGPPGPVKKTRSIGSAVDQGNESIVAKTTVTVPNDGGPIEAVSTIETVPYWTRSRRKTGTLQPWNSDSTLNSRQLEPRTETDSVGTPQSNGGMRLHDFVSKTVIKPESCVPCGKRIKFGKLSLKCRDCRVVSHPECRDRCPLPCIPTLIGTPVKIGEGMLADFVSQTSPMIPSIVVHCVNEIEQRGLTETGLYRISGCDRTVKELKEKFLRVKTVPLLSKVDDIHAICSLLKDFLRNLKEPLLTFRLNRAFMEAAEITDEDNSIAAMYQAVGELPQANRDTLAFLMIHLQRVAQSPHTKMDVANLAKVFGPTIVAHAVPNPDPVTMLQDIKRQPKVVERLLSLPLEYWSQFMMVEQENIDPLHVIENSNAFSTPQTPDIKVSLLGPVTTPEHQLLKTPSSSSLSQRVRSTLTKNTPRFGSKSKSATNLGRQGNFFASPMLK
The assay can be described thus: blockers of MgcRacGAP-driven Rac1 GTP hydrolysis – biochemical, ADP Hunter fluorescence, primary and confirmatory, confirmation (AID 624330). The format is functional.

Assay [18] is described as follows: viability loss in HeLa cells – cytotoxicity control for MgcRacGAP inhibitor project, dose response (AID 624300). The format is functional.
Assay [19] addresses Transthyretin (Homo sapiens, UniProt P02766). Kind of assay: Luminescence-based cell-based high throughput dose response assay to identify activators of Transthyretin (TTR) transcription. In kind it is functional.
Assay [20] deals with T3, Sentrin-specific protease 1. The assay can be described thus: Dose response confirmation of small molecule inhibitors of the catalytic domain of the SUMO protease, SENP1 in a FRET assay. In kind it is functional. As to conditions: read-out: IC50_Mean.
The target in assay [21] is Dual specificity tyrosine-phosphorylation-regulated kinase 1A (Rattus norvegicus, UniProt Q63470). In kind it is biochemical, Homo sapiens.
Assay [22] addresses T5, DNA repair protein RAD52 homolog (Homo sapiens, UniProt P43351).
T5 sequence (P43351 whole entry): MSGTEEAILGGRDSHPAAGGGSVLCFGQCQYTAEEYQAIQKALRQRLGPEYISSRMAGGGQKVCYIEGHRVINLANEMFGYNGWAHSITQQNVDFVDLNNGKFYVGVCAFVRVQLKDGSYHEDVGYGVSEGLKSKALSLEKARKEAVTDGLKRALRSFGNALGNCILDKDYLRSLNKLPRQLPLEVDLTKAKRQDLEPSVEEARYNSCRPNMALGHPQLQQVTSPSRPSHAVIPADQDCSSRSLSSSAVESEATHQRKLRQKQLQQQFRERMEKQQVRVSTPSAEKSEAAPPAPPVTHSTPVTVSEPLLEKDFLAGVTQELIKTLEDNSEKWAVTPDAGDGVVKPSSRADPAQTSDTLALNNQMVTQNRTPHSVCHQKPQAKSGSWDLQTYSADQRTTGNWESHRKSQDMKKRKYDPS
In kind it is functional, biochemical.

T3 sequence (Q9P0U3 whole entry, the tested form may be a part): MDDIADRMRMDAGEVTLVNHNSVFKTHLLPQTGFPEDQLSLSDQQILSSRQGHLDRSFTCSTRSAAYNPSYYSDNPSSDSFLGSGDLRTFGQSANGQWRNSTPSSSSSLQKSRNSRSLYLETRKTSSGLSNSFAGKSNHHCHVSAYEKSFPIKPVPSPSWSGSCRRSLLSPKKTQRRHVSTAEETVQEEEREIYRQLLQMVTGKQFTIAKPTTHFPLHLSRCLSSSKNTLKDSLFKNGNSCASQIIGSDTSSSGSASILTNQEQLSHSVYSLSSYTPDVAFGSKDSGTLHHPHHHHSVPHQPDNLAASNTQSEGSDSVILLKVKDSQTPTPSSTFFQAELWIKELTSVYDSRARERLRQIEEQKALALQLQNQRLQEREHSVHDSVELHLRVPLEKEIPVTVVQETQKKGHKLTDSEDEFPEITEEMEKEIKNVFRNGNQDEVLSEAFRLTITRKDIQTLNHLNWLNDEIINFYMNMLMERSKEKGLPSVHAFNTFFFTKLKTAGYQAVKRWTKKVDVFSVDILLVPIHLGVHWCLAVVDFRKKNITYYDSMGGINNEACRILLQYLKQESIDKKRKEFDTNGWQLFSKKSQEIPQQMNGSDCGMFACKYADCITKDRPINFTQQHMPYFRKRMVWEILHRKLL
Sequence of FAD-linked sulfhydryl oxidase ALR (P55789 whole entry): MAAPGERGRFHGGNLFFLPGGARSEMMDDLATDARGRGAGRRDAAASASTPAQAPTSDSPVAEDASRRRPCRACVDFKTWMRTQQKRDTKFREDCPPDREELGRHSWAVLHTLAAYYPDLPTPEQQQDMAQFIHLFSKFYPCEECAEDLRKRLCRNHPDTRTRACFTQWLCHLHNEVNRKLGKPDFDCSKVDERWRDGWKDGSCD
Sequence of Glutathione-S-transferase (Q26513 whole entry): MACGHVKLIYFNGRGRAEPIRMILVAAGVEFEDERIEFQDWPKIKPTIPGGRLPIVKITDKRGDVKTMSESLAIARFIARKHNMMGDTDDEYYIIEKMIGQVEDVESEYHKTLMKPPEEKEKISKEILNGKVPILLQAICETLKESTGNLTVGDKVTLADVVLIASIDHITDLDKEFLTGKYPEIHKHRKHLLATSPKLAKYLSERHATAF

As a reminder, the AC50 is the midpoint of the concentration-response curve, whichever way the signal moves. `NC(=O)c1cc(N)ccc1N1CCCC1`: the AC50 in [1] is 4.01 µM (active). For the same compound, the IC50 is 18.1 µM (active) in assay [2], > 100 µM (inactive) in [3] and 12.9 µM (active) in assay [4].

For `CCCCCCCCCCCCCCCCCC[N+](C)(C)CCC[Si](OC)(OC)OC`, the IC50 in assay [5], in assay [6], in [7], in [8], in assay [9] and in assay [10] was > 20 µM (inactive) in each case. Also, the IC50 in [11] and in [12] was > 20 µM (inactive) throughout.

As to `COC(=O)C1=C(C)N(Cc2ccc(F)cc2)C(=S)NC1c1cccc(F)c1` (configuration not stated), the AC50 in assay [13] is > 52 µM (inactive); in assay [14] it was 36.7 µM (active).

In turn, `Cn1c(NC(=O)c2ccccc2)nc2c3cccnc3ccc21` came in with an AbsAC90 in [15] of 141.12 µM.

By CC50 is commonly meant the concentration at which the toxic effect on the cells reaches its halfway point. The term EC50 denotes the concentration giving half of the maximal effect. Turning to `CN(C)CCNc1ccc(CO)c2oc3ccc(O)cc3c(=O)c12`, the IC50 in assay [16] was 14.1 µM (active); in assay [17], 128 µM (active); in assay [20], 21.6 µM (inactive). For the same compound, in assay [18], the CC50 is 50.8 µM (active). Further, the EC50 in assay [19] is > 167 µM (inactive). In addition, the results for the AC50 in assay [21] and in assay [22] were 8.03 µM (active) and 2.51 µM (active), respectively.
